System: LPS-induced TNF-α release in peripheral blood mononuclear cells (PBMCs)
Test: In vitro determination of PDE4 inhibitory activity in the PBMCs assay (LPS-induced TNF-α release)
Type: cell-based, human
Conditions: PBMC; human PBMCs, LPS 3 ng/ml, 18 hours, TNF-α by ELISA; read-out: PDE4 inhibition (IC50, 50% inhibition of LPS-induced TNF-α release)
Description: The assay, which is based on the known inhibitory activity exerted by PDE4 inhibitors on the lipopolyshaccarides (LPS)-induced tumour necrosis factor-alpha (TNF-α release in peripheral blood mononuclear cells (PBMCs), was performed according to a method previously described (Hatzelmann A et al., J. Pharmacol. Exp. Ther., 2001; 297:267-279; and Draheim R et al., J. Pharmacol. Exp. Ther., 2004; 308:555-563, which are incorporated herein by reference in their entireties). Cryopreserved human PBMCs, (100 l/well) were incubated in 96-well plates (10^5 cells/well), for 30 minutes, in the presence or absence (50 microl) of the test compounds whose concentrations ranged from 10^−12 M to 10^−6 M or from […] to 10^−7 M. Subsequently, LPS (3 ng/ml) was added.
After 18 hours of incubation at 37° C. in a humidified incubator under an atmosphere of 95% air and 5% CO2, culture medium was collected and TNF-α measured by ELISA. The results of the tested compounds, representatives of the invention, expressed as mean±95% confidence limits of the molar concentration of the test compound producing 50% inhibition of LPS-induced TNF-α release (IC50) are shown in the following Table: […]

Row | Structure (SMILES) | IC50 [nM]
1 | CN(C)S(=O)(=O)c1cccc(S(=O)(=O)N2CCCC2C(=O)O[C@@H](Cc2c(Cl)c[n+]([O-])cc2Cl)c2ccc(OC(F)F)c(OCC3CC3)c2)c1 (stereo in doubt) [Compound 238, 3,5-dichloro-4-((S)-2-(3-(cyclopropylmethoxy)-4-(difluoromethoxy)phenyl)-2-((S)-1-(3-(N,N-dimethylsulfamoyl)phenylsulfonyl)pyrrolidine-2-carbonyloxy)ethyl)pyridine 1-oxide] | 0.1 to 1
2 | Nc1ccc(S(=O)(=O)N2CCN(CC(=O)O[C@@H](Cc3c(Cl)c[n+]([O-])cc3Cl)c3ccc(OC(F)F)c(OCC4CC4)c3)CC2)cc1 [Compound 141, (S)-4-(2-(2-(4-(4-aminophenylsulfonyl)piperazin-1-yl)acetoxy)-2-(3-(cyclopropylmethoxy)-4-(difluoromethoxy)phenyl)ethyl)-3,5-dichloropyridine 1-oxide] | 0.1 to 1
3 | O=C(O[C@@H](Cc1c(Cl)c[n+]([O-])cc1Cl)c1ccc(OC(F)F)c(OCC2CC2)c1)[C@@H]1SCCN1C(=O)c1ccc(CN2CCS(=O)(=O)CC2)cc1 [Compound 40, 3,5-dichloro-4-((S)-2-(3-(cyclopropylmethoxy)-4-(difluoromethoxy)phenyl)-2-((S)-3-(4-(1,1-dioxothiomorpholinomethyl)benzoyl)thiazolidine-2-carbonyloxy)ethyl)pyridine 1-oxide] | 0.1 to 1
4 | COc1ccc(C(=O)N2CCC[C@H]2C(=O)O[C@@H](Cc2c(Cl)c[n+]([O-])cc2Cl)c2ccc(OC(F)F)c(OCC3CC3)c2)cc1OS(C)(=O)=O [Compound 30, 3,5-dichloro-4-((S)-2-(3-(cyclopropylmethoxy)-4-(difluoromethoxy)phenyl)-2-((S)-1-(4-methoxy-3-(methylsulfonyloxy)benzoyl)pyrrolidine-2-carbonyloxy)ethyl)pyridine-1-oxide] | 1 to 10
5 | CNS(=O)(=O)c1ccc(S(=O)(=O)N2CCSCC2C(=O)O[C@@H](Cc2c(Cl)c[n+]([O-])cc2Cl)c2ccc(OC(F)F)c(OCC3CC3)c2)cc1 (stereo partly drawn) [Compound 81, 3,5-dichloro-4-((2S)-2-(3-(cyclopropylmethoxy)-4-(difluoromethoxy)phenyl)-2-(4-(4-(N-methylsulfamoyl)phenylsulfonyl)thiomorpholine-3-carbonyloxy)ethyl)pyridine 1-oxide] | 0.1 to 1
6 | Cn1cnc(S(=O)(=O)N2CCS[C@H]2C(=O)O[C@@H](Cc2c(Cl)c[n+]([O-])cc2Cl)c2ccc(OC(F)F)c(OCC3CC3)c2)c1 [Compound 119, 3,5-dichloro-4-((S)-2-(3-(cyclopropylmethoxy)-4-(difluoromethoxy)phenyl)-2-((S)-3-(1-methyl-1H-imidazol-4-ylsulfonyl)thiazolidine-2-carbonyloxy)ethyl)pyridine 1-oxide] | < 0.1
7 | CN(C)C(=O)c1cccc(S(=O)(=O)N2CCSCC2C(=O)O[C@@H](Cc2c(Cl)c[n+]([O-])cc2Cl)c2ccc(OC(F)F)c(OCC3CC3)c2)c1 (stereo partly drawn) [Compound 80, 3,5-dichloro-4-((2S)-2-(3-(cyclopropylmethoxy)-4-(difluoromethoxy)phenyl)-2-(4-(3-(dimethylcarbamoyl)phenylsulfonyl)thiomorpholine-3-carbonyloxy)ethyl)pyridine 1-oxide] | 0.1 to 1
8 | COc1ccc(S(=O)(=O)N2CCSC2C(=O)O[C@@H](Cc2c(Cl)c[n+]([O-])cc2Cl)c2ccc(OC(F)F)c(OCC3CC3)c2)cc1N (stereo partly drawn) [Compound 137, 4-((2S)-2-(3-(3-amino-4-methoxyphenylsulfonyl)thiazolidine-2-carbonyloxy)-2-(3-(cyclopropylmethoxy)-4-(difluoromethoxy)phenyl)ethyl)-3,5-dichloropyridine 1-oxide] | 0.1 to 1
9 | Nc1ccc(S(=O)(=O)N2CCOC(C(=O)O[C@@H](Cc3c(Cl)c[n+]([O-])cc3Cl)c3ccc(OC(F)F)c(OCC4CC4)c3)C2)cc1 (stereo partly drawn) [Compound 139, 4-((2S)-2-(4-(4-aminophenylsulfonyl)morpholine-2-carbonyloxy)-2-(3-(cyclopropylmethoxy)-4-(difluoromethoxy)phenyl)ethyl)-3,5-dichloropyridine 1-oxide] | < 0.1
10 | N#Cc1ccc(S(=O)(=O)N2CCS[C@H]2C(=O)O[C@@H](Cc2c(Cl)c[n+]([O-])cc2Cl)c2ccc(OC(F)F)c(OCC3CC3)c2)cc1 [Compound 206, 3,5-dichloro-4-((S)-2-((S)-3-(4-cyanophenylsulfonyl)thiazolidine-2-carbonyloxy)-2-(3-(cyclopropylmethoxy)-4-(difluoromethoxy)phenyl)ethyl)pyridine 1-oxide] | < 0.1
11 | COc1ccc([C@H](Cc2c(Cl)c[n+]([O-])cc2Cl)OC(=O)[C@@H]2CCCN2S(=O)(=O)c2cccc(C(=O)N(C)C)c2)cc1OC [Compound 310, 3,5-dichloro-4-((S)-2-(3,4-dimethoxyphenyl)-2-((S)-1-(3-(dimethylcarbamoyl)phenylsulfonyl)pyrrolidine-2-carbonyloxy)ethyl)pyridine 1-oxide] | < 0.1
12 | O=C(O[C@@H](Cc1c(Cl)c[n+]([O-])cc1Cl)c1ccc(OC(F)F)c(OCC2CC2)c1)[C@@H]1SCCN1S(=O)(=O)CCN1CCOCC1 [Compound 287, 3,5-dichloro-4-((S)-2-(3-(cyclopropylmethoxy)-4-(difluoromethoxy)phenyl)-2-((S)-3-(2-morpholinoethylsulfonyl)thiazolidine-2-carbonyloxy)ethyl)pyridine 1-oxide] | < 0.1
13 | O=C(O[C@@H](Cc1c(Cl)c[n+]([O-])cc1Cl)c1ccc(OC(F)F)c(OCC2CC2)c1)C1SCCN1S(=O)(=O)c1ccc(N2CCOCC2)nc1 (stereo partly drawn) [Compound 74, 3,5-dichloro-4-((2S)-2-(3-(cyclopropylmethoxy)-4-(difluoromethoxy)phenyl)-2-(3-(6-morpholinopyridin-3-ylsulfonyl)thiazolidine-2-carbonyloxy)ethyl)pyridine 1-oxide] | < 0.1
14 | COc1ccc(S(=O)(=O)N2CCS[C@H]2C(=O)O[C@@H](Cc2c(Cl)c[n+]([O-])cc2Cl)c2ccc(OC(F)F)c(OCC3CC3)c2)cc1C(=O)N(C)C [Compound 131, 3,5-dichloro-4-((S)-2-(3-(cyclopropylmethoxy)-4-(difluoromethoxy)phenyl)-2-((S)-3-(3-(dimethylcarbamoyl)-4-methoxyphenylsulfonyl)thiazolidine-2-carbonyloxy)ethyl)pyridine 1-oxide] | < 0.1
15 | Cc1noc2ncc(S(=O)(=O)N3CCC[C@H]3C(=O)O[C@@H](Cc3c(Cl)c[n+]([O-])cc3Cl)c3ccc(OC(F)F)c(OCC4CC4)c3)cc12 [Compound 251, 3,5-dichloro-4-((S)-2-(3-(cyclopropylmethoxy)-4-(difluoromethoxy)phenyl)-2-((S)-1-(3-methylisoxazolo[5,4-b]pyridin-5-ylsulfonyl)pyrrolidine-2-carbonyloxy)ethyl)pyridine 1-oxide] | < 0.1
16 | CS(=O)(=O)c1ccc(S(=O)(=O)N2CCSC2C(=O)O[C@@H](Cc2c(Cl)c[n+]([O-])cc2Cl)c2ccc(OC(F)F)c(OCC3CC3)c2)cc1 (stereo partly drawn) [Compound 92, 3,5-dichloro-4-((2S)-2-(3-(cyclopropylmethoxy)-4-(difluoromethoxy)phenyl)-2-(3-(4-(methylsulfonyl)phenylsulfonyl)thiazolidine-2-carbonyloxy)ethyl)pyridine 1-oxide] | < 0.1
17 | COC(=O)c1ccccc1S(=O)(=O)N1CCS[C@H]1C(=O)O[C@@H](Cc1c(Cl)c[n+]([O-])cc1Cl)c1ccc(OC(F)F)c(OCC2CC2)c1 [Compound 101, 3,5-dichloro-4-((S)-2-(3-(cyclopropylmethoxy)-4-(difluoromethoxy)phenyl)-2-((S)-3-(2-(methoxycarbonyl)phenylsulfonyl)thiazolidine-2-carbonyloxy)ethyl)pyridine 1-oxide] | < 0.1
18 | O=C(O[C@@H](Cc1c(Cl)c[n+]([O-])cc1Cl)c1ccc(OC(F)F)c(OCC2CC2)c1)C1SCCN1S(=O)(=O)c1ccccc1Cl (stereo partly drawn) [Compound 70, 3,5-dichloro-4-((2S)-2-(3-(2-chlorophenylsulfonyl)thiazolidine-2-carbonyloxy)-2-(3-(cyclopropylmethoxy)-4-(difluoromethoxy)phenyl)ethyl)pyridine 1-oxide] | 0.1 to 1
19 | Cc1nc(C)c(S(=O)(=O)N2CCS[C@H]2C(=O)O[C@@H](Cc2c(Cl)c[n+]([O-])cc2Cl)c2ccc(OC(F)F)c(OCC3CC3)c2)s1 [Compound 107, 3,5-dichloro-4-((S)-2-(3-(cyclopropylmethoxy)-4-(difluoromethoxy)phenyl)-2-((S)-3-(2,4-dimethylthiazol-5-ylsulfonyl)thiazolidine-2-carbonyloxy)ethyl)pyridine 1-oxide] | < 0.1
20 | CN1CCOc2ccc(S(=O)(=O)N3CCC[C@H]3C(=O)O[C@@H](Cc3c(Cl)c[n+]([O-])cc3Cl)c3ccc(OC(F)F)c(OCC4CC4)c3)cc21 [Compound 250, 3,5-dichloro-4-((S)-2-(3-(cyclopropylmethoxy)-4-(difluoromethoxy)phenyl)-2-((S)-1-(4-methyl-3,4-dihydro-2H-benzo[b][1,4]oxazin-6-ylsulfonyl)pyrrolidine-2-carbonyloxy)ethyl)pyridine 1-oxide] | < 0.1
21 | Nc1ccc(S(=O)(=O)N2CCS[C@H]2C(=O)O[C@@H](Cc2c(Cl)c[n+]([O-])cc2Cl)c2ccc(OC(F)F)c(OCC3CC3)c2)cc1 [Compound 150, 4-((S)-2-((S)-3-(4-aminophenylsulfonyl)thiazolidine-2-carbonyloxy)-2-(3-(cyclopropylmethoxy)-4-(difluoromethoxy)phenyl)ethyl)-3,5-dichloropyridine 1-oxide] | < 0.1
